Tests used:
[1] = tested on: hypoxic-ischemic brain injury; assay: hypoxic-ischemic brain injury mouse model, cerebral infarct volume; assay type: in vivo; conditions: direct acute administration of NPD1 (10 ng, 20 ng) after hypoxic-ischemic injury, compared to control (saline) group; FIG. 2A

Method for brain mitochondria: FIG. 2C is a western blot mean quantification for BAX 6A7 in naïve (n=6), saline (n=7) and NPD1 (n=8) at 4 h after ischemic injury.

Compound: CC/C=C\C[C@H](O)\C=C/C=C/C=C/[C@H](O)C/C=C\C/C=C\CCC(=O)O [NPD1, neuroprotection D1]
- cerebral infarct volumes [1]: significant reduction in cerebral infarct volumes
- mitochondrial Ca2+ buffering capacity (brain mitochondria; NPD1 treatment after hypoxic-ischemic injury): preserved mitochondrial Ca2+ buffering capacity
- mitochondria-related cell death pathways (brain mitochondria; NPD1 treatment, BAX 6A7 western blot at 4 h after ischemic injury (FIG. 2C)): reduced mitochondria-related cell death pathways

Source: patent US20240390502A1, “DELIVERY SYSTEMS FOR BIOACTIVE LIPIDS” (The Trustees of Columbia University in The City of New York, priority 2021, published 2024)
